Earlier results as cited in article PMC4931242, “Enhancing digestibility and ethanol yield of Populus wood via expression of an engineered monolignol 4-O-methyltransferase” (Nature Communications, 2016).

Biological target: T1, MOMT4 (engineered monolignol 4-O-methyltransferase) (Clarkia breweri, UniProt O04385, T133L/E165I/H169F/F175I)
T1 construct: gene IEMT1; engineered quadruple active-site variant of isoeugenol 4-O-methyltransferase; purified enzyme
Test: 4-O-methylation kinetics
Assay type: biochemical
Conditions: co-substrate SAM; s.d., n=3

T1 sequence (O04385 whole entry T133L/E165I/H169F/F175I): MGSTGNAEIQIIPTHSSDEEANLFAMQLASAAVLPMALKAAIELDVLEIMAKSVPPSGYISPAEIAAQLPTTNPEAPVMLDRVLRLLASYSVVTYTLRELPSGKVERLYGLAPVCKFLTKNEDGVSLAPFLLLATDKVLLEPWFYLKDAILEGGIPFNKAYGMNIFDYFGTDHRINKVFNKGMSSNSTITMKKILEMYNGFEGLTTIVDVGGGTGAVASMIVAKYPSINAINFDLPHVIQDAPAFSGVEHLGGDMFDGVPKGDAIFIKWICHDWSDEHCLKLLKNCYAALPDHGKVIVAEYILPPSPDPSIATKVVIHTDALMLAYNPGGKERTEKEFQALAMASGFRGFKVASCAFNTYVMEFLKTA

Km [µM] | SMILES
193 ± 24.5 | COc1cc(/C=C/CO)ccc1O [coniferyl alcohol]
68.1 ± 11.1 | COc1cc(/C=C/CO)cc(OC)c1O [sinapyl alcohol]
